Data set [1] deals with Fusobacterium nucleatum. The data set can be described thus: Antibacterial activity against Fusobacterium nucleatum ATCC 23726 assessed as bacterial growth inhibition incubated for 48 hrs by broth dilution susceptibility test. The format is functional. Background: Broth dilution looks for growth in wells or tubes with falling amounts of substance.
In another data set the test system is MC-38. In words: Antiproliferative activity against mouse MC-38 cells assessed as inhibition of cell growth incubated for 48 hrs by CCK-8 assay. Type of data set: functional, cell-based. Conditions: MC-38, 48 h. (In general: Tetrazolium dyes change colour on reduction, which living cells bring about.)
The test system of the next data set is HCT-116. The data set can be described thus: Antiproliferative activity against human HCT-116 cells assessed as inhibition of cell growth incubated for 48 hrs by CCK-8 assay. Type of data set: functional, cell-based. Conditions: HCT-116, 48 h.
Data set [2] is described as follows: Cytotoxicity against HUVEC cells assessed as inhibition of cell growth incubated for 48 hrs by CCK-8 assay. The format is toxicity, cell-based. Conditions: human.
Data set [3] can be described thus: Cytotoxicity against human L02 cells assessed as inhibition of cell growth incubated for 48 hrs by CCK-8 assay. Type of data set: toxicity, cell-based.
Data set [4] concerns Fusobacterium nucleatum. In words: Antibacterial activity against Fusobacterium nucleatum ATCC 23726 assessed as bacterial growth inhibition at 8 ug/ml incubated for 72 hrs by turbidimeter analysis. The format is functional, organism-based. Conditions: dose 8.0 µg/ml.
Data set [5] concerns Fusobacterium nucleatum. The data set can be described thus: Antibacterial activity against Fusobacterium nucleatum ATCC 23726 assessed as bacterial growth inhibition incubated for 72 hrs by turbidimeter analysis. Type of data set: functional, organism-based.
The test system of a further data set is Escherichia coli. In words: Antibacterial activity against Escherichia coli […] assessed as bacterial growth inhibition incubated for 48 hrs by broth dilution susceptibility test. Type of data set: functional.
For another data set, the system named is Enterococcus faecalis. The data set can be described thus: Antibacterial activity against Enterococcus faecalis ATCC 29212 assessed as bacterial growth inhibition incubated for 48 hrs by broth dilution susceptibility test. The format is functional.
The next data set deals with Staphylococcus aureus. In words: Antibacterial activity against Staphylococcus aureus ATCC 6538 assessed as bacterial growth inhibition incubated for 48 hrs by broth dilution susceptibility test. The format is functional.
Data set [6] relates to Peptostreptococcus anaerobius. The data set can be described thus: Antibacterial activity against Peptostreptococcus anaerobius ATCC 27337 assessed as bacterial growth inhibition incubated for 48 hrs by broth dilution susceptibility test. Type of data set: functional.
The subject of the next data set is Akkermansia muciniphila. The data set can be described thus: Antibacterial activity against Akkermansia muciniphila ATCC BAA-835 assessed as bacterial growth inhibition incubated for 48 hrs by broth dilution susceptibility test. Type of data set: functional.
Data set [7] relates to Salmonella enterica subsp. enterica serovar Paratyphi B. The data set can be described thus: Antibacterial activity against Salmonella paratyphi B ATCC CMCC50094 assessed as bacterial growth inhibition incubated for 48 hrs by broth dilution susceptibility test. Type of data set: functional.
The next data set relates to Shigella flexneri. In words: Antibacterial activity against Shigella flexneri ATCC 12022 assessed as bacterial growth inhibition incubated for 48 hrs by broth dilution susceptibility test. Type of data set: functional.
The subject of data set [8] is Lactobacillus acidophilus. In words: Antibacterial activity against Lactobacillus acidophilus ATCC CGMCC 1.577 assessed as bacterial growth inhibition incubated for 48 hrs by broth dilution susceptibility test. The format is functional.

From ChEMBL document CHEMBL5375955, “Discovery of New Fusobacterium nucleatum Inhibitors to Attenuate Migratory Capability of Colon Cancer Cells by the Drug Repositioning Strategy” (J Med Chem, 2023) come the findings set out here.

pIC50: −log10 of the molar value. ≈ marks a conversion by molar mass, not a printed value. Calls of active or inactive are those of the source. The rule behind the calls is not given here.

By MIC50 is commonly meant an inhibitory concentration at the 50% level, which refers to growth in some studies and to a panel of isolates in others. What is called pIC50 is the negative decadic logarithm of the IC50, by convention in mol/L. The IC50 is the concentration at which inhibition is half-maximal.

Take `Cc1ccc(OC(=O)c2ccc(C(F)(F)F)cc2[N+](=O)[O-])c(C(N)=O)c1`: in the data set on Fusobacterium nucleatum [1], the MIC50 was 64 µg/mL (≈ 174 µM).
The same measure, in the same setting: then `CN(N=O)C(=O)N[C@@H](C=O)[C@@H](O)[C@H](O)[C@H](O)CO` [STREPTOZOCIN], with 0.125 µg/mL (≈ 0.471 µM); and `Cl.Cl.Cl.O[C@@H](COc1cccc2ncccc12)CN1CCN([C@@H]2c3ccccc3[C@@H]3[C@H](c4ccccc42)C3(F)F)CC1` [ZOSUQUIDAR TRIHYDROCHLORIDE], with 16 µg/mL; and `CS(=O)(=O)c1ccc(C(=O)C2C(=O)CCCC2=O)c([N+](=O)[O-])c1` [MESOTRIONE], with 32 µg/mL (≈ 94.3 µM).
Still for that read-out and setting: then `O=C(Nc1ccc([N+](=O)[O-])c(Cl)c1)c1ccc([N+](=O)[O-])cc1F`, with over 64 µg/mL; and `O=[N+]([O-])c1ccc(COc2ccc(C(F)(F)F)cc2[N+](=O)[O-])o1`, with 4 µg/mL (≈ 12 µM); and `NC(=O)c1ccc(NC(=O)c2ccc(C(F)(F)F)cc2)cc1`, with over 64 µg/mL.
For `O=C(OCc1ccc([N+](=O)[O-])o1)c1ccc(C(F)(F)F)cc1[N+](=O)[O-]`, the MIC50 was 4 µg/mL (≈ 11.1 µM) in the data set on Fusobacterium nucleatum [1]; over 64 µg/mL in the data set with Escherichia coli; over 64 µg/mL in the data set with Enterococcus faecalis; over 64 µg/mL in the data set on Staphylococcus aureus; over 64 µg/mL in data set [6]; over 64 µg/mL in the data set with Akkermansia muciniphila. The results for the MIC50 (in [7]; in the data set on Shigella flexneri; in data set [8]) were 64 µg/mL (≈ 178 µM), over 64 µg/mL and 64 µg/mL (≈ 178 µM), respectively. The pIC50 in the data set on MC-38 is 4.31; in the data set on HCT-116, 4.08. For the same molecule, the IC50 at 48 h worked out at 40 µM in [2] and 81 µM in data set [3]. Moreover, in the data set on Fusobacterium nucleatum [4], the result was Active. Also, the Activity entry in the data set on Fusobacterium nucleatum [5] was “Dose-Dependent Effect”.
Consider `CSc1ccc(OCc2ncc([N+](=O)[O-])n2C)cc1` [FEXINIDAZOLE], for which the MIC50 with Fusobacterium nucleatum [1] worked out at 8 µg/mL (≈ 28.6 µM).
`O=C(OCc1ccc([N+](=O)[O-])o1)c1ccc([N+](=O)[O-])c(Br)c1`: the MIC50 in the data set on Fusobacterium nucleatum [1] was 4 µg/mL (≈ 10.8 µM); in the data set with Escherichia coli, over 64 µg/mL; in the data set with Enterococcus faecalis it was over 64 µg/mL; with Staphylococcus aureus, over 64 µg/mL; in data set [6], over 64 µg/mL; with Akkermansia muciniphila it was over 64 µg/mL. For the same molecule, the MIC50 is 64 µg/mL (≈ 172 µM) in data set [7], over 64 µg/mL with Shigella flexneri and 64 µg/mL (≈ 172 µM) in [8]. Moreover, the pIC50 in the data set with MC-38 was 4.38; with HCT-116, 4.18. Further, the concentration for half-maximal inhibition (IC50) at 48 h is 31 µM in [2] and 175 µM in data set [3]. The result with Fusobacterium nucleatum [4] was Active. The Activity entry in the data set on Fusobacterium nucleatum [5] is “Dose-Dependent Effect”.
`O=C(NCc1ccccc1C(F)(F)F)c1ccc(C(F)(F)F)cc1[N+](=O)[O-]`: the MIC50 in the data set on Fusobacterium nucleatum [1] was over 64 µg/mL.
Still for that read-out and setting: the value for `CC1CS(=O)(=O)CCN1/N=C/c1ccc([N+](=O)[O-])o1` (centres undefined) [NIFURTIMOX] was 16 µg/mL (≈ 55.7 µM); that for `O=C(Nc1cc(Cl)cc([N+](=O)[O-])c1)c1ccc(C(F)(F)F)cc1[N+](=O)[O-]` was over 64 µg/mL.
On the same count and under the same terms, the value for `COC(=O)OCc1ccc(NC(=O)c2ccc(C(F)(F)F)cc2[N+](=O)[O-])cc1` was over 64 µg/mL; that for `Cn1c([N+](=O)[O-])cnc1COC(N)=O` [RONIDAZOLE] was 2 µg/mL (≈ 9.99 µM).
The same measure, in the same setting: the value for `CS(=O)(=O)c1ccc(C(=O)C2C(=O)CCCC2=O)c(Cl)c1COCC(F)(F)F` [TEMBOTRIONE] was over 64 µg/mL.
